Measured values: paper PMC9994261 (Cell, 2023)
≈ marks a conversion by molar mass, not a printed value. Like-named read-outs stand apart in the source and are kept apart here.

Key:
Mtb methylated ribosome = assay: Mtb in vitro translation assay with methylated (erythromycin-treated) ribosome; format: biochemical, Mycobacterium tuberculosis
Mtb ribosome = format: biochemical, Mycobacterium tuberculosis
Mtb H37Rv [1] = assay: microbe, parasite or virus in culture; format: cell-based, Mycobacterium tuberculosis; conditions: Mycobacterium tuberculosis, H37RV; read-out: MIC for Mtb in liquid culture
Mtb H37Rv [2] = assay: MIC80 after overnight pre-incubation of Mtb with subinhibitory macrolide; format: cell-based; conditions: Mycobacterium tuberculosis
Mtb H37Rv [3] = assay: Combination study in mouse model of TB; format: in vivo; conditions: mouse, in vivo
in vivo = conditions: male, Swiss, mouse, po; for AUC: 30 mg/kg, oral 30 mg/kg
[4] = format: in vitro ADME
physchem [5] = format: physicochemical
in vitro = in vitro ADME; conditions: human, Caco-2; read-out: Permeability in Caco2 cells (Papp)
[6] = format: in vitro ADME, human; conditions: for Metabolic stability in human liver microsomes (% metabolized compound after 20 min): 20 min incubation; for Metabolic stability in human liver microsomes (% metabolized compound after 20 min), (K): in presence of ketoconazole CYP3A inhibitor (K); for Metabolic stability in human liver microsomes (% metabolized compound after 20 min), (Q): in presence of quinidine CYP2D6 inhibitor (Q)
Method: The metabolic stability of test compounds was determined as described.[57]^,[58] Incubation and experimental conditions with human hepatic microsomal fractions (purchased from BD Gentest as a pooled batch from 6 donors) were as follows: microsomal proteins, 1 mg/mL; bovine serum albumin, 1 mg/mL; substrate, 5 μM; incubation duration, 20 min; cytochrome P-450 monooxygenases (CYPs) and flavin containing monooxygenases (FMOs) cofactor, 1 mM NADPH. Enzyme activity was stopped with 1 volume of acetonitrile. […] For each test compound and for each microsomal preparation, three incubations were prepared: absolute reference in buffer (without enzyme material, i.e., microsomes); incubation without NADPH cofactor (with microsomal fractions); and incubation with NADPH (with microsomal fractions). For most compounds, biotransformation, as observed in hepatic microsomal fractions in the presence of the NADPH cofactor, consists of oxidative reactions catalyzed by either CYPs or FMOs. In these conditions, the percentage of total metabolism, which corresponds to oxidative metabolism, was determined as follows: [% total metabolism] ≈ [% oxidative metabolism] = [unchanged compound (UC) peak area − NADPH UC peak area + NADPH] × 100%, where NADPH corresponds to the enzyme cofactor for oxidation reactions catalyzed by either CYP or FMO.

CYP3A4 = biological target: T1, CYP3A4 (Homo sapiens, UniProt P08684); assay: CYP3A4 reversible inhibition in human liver microsomes; format: in vitro ADME
T1 construct: human liver microsomes (purchased from BD Gentest as a pooled batch from 150 donors); tissue BD Gentest Cat#452117; host or cells: pooled human liver microsomes (150 donors)
T1 sequence (P08684 whole entry): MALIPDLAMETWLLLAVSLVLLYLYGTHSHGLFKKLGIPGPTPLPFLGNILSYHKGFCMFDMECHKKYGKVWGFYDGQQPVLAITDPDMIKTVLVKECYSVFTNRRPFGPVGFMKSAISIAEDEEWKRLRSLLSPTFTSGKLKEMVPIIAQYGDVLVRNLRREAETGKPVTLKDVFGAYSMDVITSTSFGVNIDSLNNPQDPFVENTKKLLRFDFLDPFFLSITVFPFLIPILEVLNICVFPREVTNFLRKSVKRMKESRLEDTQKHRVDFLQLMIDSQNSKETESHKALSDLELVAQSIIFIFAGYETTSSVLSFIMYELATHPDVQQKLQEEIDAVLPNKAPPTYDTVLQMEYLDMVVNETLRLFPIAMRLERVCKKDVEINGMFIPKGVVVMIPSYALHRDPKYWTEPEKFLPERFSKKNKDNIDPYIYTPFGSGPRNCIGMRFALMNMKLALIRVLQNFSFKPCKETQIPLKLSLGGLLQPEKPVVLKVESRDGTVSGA
Method: Incubations were performed with 0.1 mg/mL human liver microsomes (purchased from BD Gentest as a pooled batch from 150 donors) in a final incubation volume of 0.25 mL. The incubation medium contained 0.05 M phosphate buffer (pH 7.4) containing an NADPH regenerating system (including 1.3 mM NADP, 3.3 mM glucose 6-phosphate,3.3 mM MgCl2, and 1.0 U/mL glucose 6-phosphate dehydrogenase). Probe CYP3A4 substrates (midazolam at 3 μM and testosterone at 50 μM), were incubated for 10 and 30 min, respectively, with increasing concentrations of GM, MGM or CGM (concentration range: 1 - 30 μM). The reaction was stopped by adding acetonitrile to precipitate the proteins. The incubation mixtures were then centrifuged for 5 min at 10,000 × g, and an aliquot of the supernatant was analyzed using high-performance liquid chromatography coupled to mass spectrometry for the assessment of 1’-hydroxymidazolam and 6β-hydroxytestosterone metabolite formation.

[7] = system: GFP-expressing Mtb H37Rv in RAW264.7 macrophages; assay: Intramacrophage assay (MIC for Mtb in macrophages); format: cell-based, Mycobacterium tuberculosis; conditions: Mycobacterium tuberculosis, H37RV; read-out: MIC for Mtb tuberculosis in macrophages
[8] = format: in vitro ADME; remark: listed apart in the source
[9] = format: in vitro ADME; remark: listed apart in the source
physchem [10] = conditions: pH 7.4
[11] = pH 2, 50% acetonitrile/water
M. bovis BCG Pasteur = assay: microbe, parasite or virus in culture; format: cell-based, Mycobacterium bovis
[12] = methylated ribosome, read-out: IC50 methylated ribosome
[13] = non-methylated ribosome, read-out: IC50 ribosome
[14] = read-out: Translation inhibition of Mtb methylated ribosome (IC50 μM)
[15] = read-out: Inhibition of Mtb translation (IC50 μM)
[16] = aqueous buffer, PBS pH 7.4, read-out: Solubility: PBS@pH 7.4

Compound `CC[C@H]1OC(=O)[C@H](C)[C@@H](O[C@H]2C[C@@](C)(OC)[C@@H](O)[C@H](C)O2)[C@H](C)[C@@H](O[C@@H]2O[C@H](C)C[C@H](N(C)C)[C@H]2O)[C@](C)(O)C[C@@H](C)C(=O)[C@H](C)[C@@H](O)[C@]1(C)O` [Erythromycin, reference compound] has an IC50 (Mtb methylated ribosome; [12]) of 140 µM, an IC50 (Mtb ribosome; [13]) of 0.671 µM and an MIC (Mtb H37Rv [1]) of 128 µM (≈ 93.9 µg/mL).

With `CC(=O)NC[C@H]1CN(c2ccc(N3CCOCC3)c(F)c2)C(=O)O1` [Linezolid] the MIC80 (Mtb H37Rv [2]) was 1 µM (≈ 0.337 µg/mL) and the “Mean ± SD lung CFU counts, Week 4” value (Mtb H37Rv [3]) was 6.86 ± 0.08.

`CC[C@H]1OC(=O)[C@H](C)[C@@H](O[C@H]2C[C@@](C)(OC)[C@@H](O)[C@H](C)O2)[C@H](C)[C@@H](O[C@@H]2O[C@H](C)C[C@H](N(C)C)[C@H]2O)[C@](C)(O)C[C@@H](C)CN(C)[C@H](C)[C@@H](O)[C@]1(C)O` [Azithromycin, reference compound] gave an IC50 (Mtb methylated ribosome; [12]) of over 100 µM and an IC50 (Mtb ribosome; [13]) of 2.91 µM.

With `COc1nc2ccc(Br)cc2cc1[C@@H](c1ccccc1)[C@@](O)(CCN(C)C)c1cccc2ccccc12` [BDQ, Bedaquiline] the “Mean ± SD lung CFU counts, Week 4” value (Mtb H37Rv [3]) was 2.96 ± 0.19.

`COC1C(OCC(C)C2OC(=O)C(C)C(OC3CC(C)(O)C(O)C(C)O3)C(C)C(OC3OC(C)CC(=O)C3O)C(C)CC(C)(O)C(=O)C(C)C(OC(=O)CC(C)C)C2C)OC(C)C(O)C1OC` [SEQ-503, (3S,4S,5R,7S,9S,10S,11R,12S,13R)-12-[(4,5-dihydroxy-4,6-dimethyltetrahydro-2H-pyran2-yl)oxy]-7-hydroxy-2-{1-[(5-hydroxy-3,4-dimethoxy-6-methyltetrahydro-2H-pyran-2-yl)oxy]propan-2-yl}-10-[(3-hydroxy-6-methyl-4-oxotetrahydro-2H-pyran-2-yl)oxy]-3,5,7,9,11,13-hexamethyl-6,14-dioxooxacyclotetradecan-4-yl) 3-methylbutanoate] gave a bioavailability (in vivo) of 22%, an IC50 (Mtb methylated ribosome; [14]) of 0.022 µM and an IC50 (Mtb ribosome; [15]) of 0.021 µM. The “Metabolic stability in mouse liver microsomes (% metabolized compound after 20 min)” value [4] was 0/ND %, the solubility (physchem [5]; [16]) was 0.522 mg/mL (≈ 542 µM) and the Papp (in vitro) was 0.7 nm/s. For the same compound, the “Metabolic stability in human liver microsomes (% metabolized compound after 20 min)” value [6] was 67%, the “Metabolic stability in human liver microsomes (% metabolized compound after 20 min), (K)” value [6] was 4(K) % and the “Metabolic stability in human liver microsomes (% metabolized compound after 20 min), (Q)” value [6] was “/41(Q) %”. The IC50 (CYP3A4; substrate not stated, read-out: CYP3A4 inhibition) was over 10 µM, the MIC (Mtb H37Rv [1]) was 1.4 µM (≈ 1.35 µg/mL) and the MIC [7] was 2.5 µM (≈ 2.41 µg/mL).

Work on `CC[C@H]1OC(=O)C[C@@H](O)[C@H](C)[C@@H](O[C@@H]2O[C@H](C)[C@@H](O[C@H]3C[C@@](C)(O)[C@@H](O)[C@H](C)O3)[C@H](N(C)C)[C@H]2O)[C@@H](CC=O)C[C@@H](C)C(=O)/C=C/C(C)=C/[C@@H]1CO[C@@H]1O[C@H](C)[C@@H](O)[C@@H](OC)[C@H]1OC` [Tylosin, reference compound] yielded an IC50 (Mtb methylated ribosome; [12]) of 0.377 µM and an IC50 (Mtb ribosome; [13]) of 0.0892 µM.

`CON=C1C[C@@H](C)O[C@@H](O[C@@H]2[C@@H](C)[C@H](O[C@H]3C[C@@](C)(O)[C@@H](O)[C@H](C)O3)[C@@H](C)C(=O)O[C@H](C(C)CO[C@@H]3O[C@H](C)[C@@H](O)[C@@H](OC)[C@H]3OC)[C@H](C)[C@@H](OC(=O)CC(C)C)[C@@H](C)C(=O)[C@@](C)(OC(=O)NCCn3c([N+](=O)[O-])cnc3C)C[C@@H]2C)[C@@H]1O` (some centres unmarked) [SEQ-569] gave an IC50 (Mtb ribosome; [15]) of 0.054 µM and an MIC (Mtb H37Rv [1]) of 0.57 µM (≈ 0.677 µg/mL).

`CO/N=C1\C[C@@H](C)O[C@@H](O[C@@H]2[C@@H](C)[C@H](O[C@H]3C[C@@](C)(O)[C@@H](O)[C@H](C)O3)[C@@H](C)C(=O)O[C@H]([C@@H](C)CO[C@@H]3O[C@H](C)[C@@H](O)[C@@H](OC)[C@H]3OC)[C@H](C)[C@@H](OC(=O)CC(C)C)[C@@H](C)C(=O)[C@@](C)(OC(=O)NCCNS(=O)(=O)c3ccccc3[N+](=O)[O-])C[C@@H]2C)[C@@H]1O` [SEQ-977] showed an IC50 (Mtb ribosome; [15]) of 0.034 µM and an MIC (Mtb H37Rv [1]) of 0.13 µM (≈ 0.164 µg/mL).

With `NC(=O)c1cnccn1` [Z, Pyrazinamide] the “Mean ± SD lung CFU counts, Week 4” value (Mtb H37Rv [3]) was 5.99 ± 0.19.

In the case of `O=[N+]([O-])c1cn2c(n1)OC[C@@H](OCc1ccc(OC(F)(F)F)cc1)C2` [Pa, Pretomanid], the “Mean ± SD lung CFU counts, Week 4” value (Mtb H37Rv [3]) is reported as 5.83 ± 0.12.

Compound `CC[C@H]1OC(=O)[C@H](C)[C@@H](O[C@H]2C[C@@](C)(OC)[C@@H](O)[C@H](C)O2)[C@H](C)[C@@H](O[C@@H]2O[C@H](C)C[C@H](N(C)C)[C@H]2O)[C@](C)(O)C[C@@H](C)/C(=N\OCOCCOC)[C@H](C)[C@@H](O)[C@]1(C)O` [roxithromycin, reference compound] has an MIC (Mtb H37Rv [1]) of 32 µM (≈ 26.8 µg/mL).

In the case of `CO/N=C1\C[C@@H](C)O[C@@H](O[C@@H]2[C@@H](C)[C@H](O[C@H]3C[C@@](C)(O)[C@@H](O)[C@H](C)O3)[C@@H](C)C(=O)O[C@H]([C@@H](C)CO[C@@H]3O[C@H](C)[C@@H](O)[C@@H](OC)[C@H]3OC)[C@H](C)[C@@H](OC(=O)CC(C)C)[C@@H](C)C(=O)[C@@](C)(OC(=O)NCc3ccccc3)C[C@@H]2C)[C@@H]1O` [SEQ-416, [(2R,3S,4R,5R,7S,9S,10S,11R,12S,13R)-7-(benzylcarbamoyloxy)-12-[(2R,4R,5S,6S)-4,5-dihydroxy-4,6-dimethyl-tetrahydropyran-2-yl]oxy-2-[(1S)-2-[(2R,3R,4R,5R,6R)-5-hydroxy-3,4-dimethoxy-6-methyl-tetrahydropyran-2-yl]oxy-1-methyl-ethyl]-10-[(2S,3R,4E,6R)-3-hydroxy-4-methoxyimino-6-methyl-tetrahydropyran-2-yl]oxy-3,5,7,9,11,13-hexamethyl-6,14-dioxo-oxacyclotetradec-4-yl] 3-methylbutanoate], the bioavailability (in vivo) is reported as 21%, the AUC (in vivo; AUC in lung @30 mg/kg, lung) is reported as 4.8 µg·h/mL and the AUC (in vivo; AUC in plasma @30 mg/kg, plasma) is reported as 4 µg·h/mL. For the same compound, the “Metabolic degradation/clearance from human liver microsomes” value [8] was 0.057 mL/h/10^6 hepatocytes, the IC50 (Mtb methylated ribosome; [14]) was 0.031 µM and the IC50 (Mtb ribosome; [15]) was 0.044 µM. For the same compound, the “Metabolic stability in rat liver microsomes (% metabolized compound after 20 min)” value [9] was 22%, the “Metabolic stability in mouse liver microsomes (% metabolized compound after 20 min)” value [4] was 25% and the solubility (physchem [5]; MCT pH 7.4, read-out: Solubility: MCT@pH 7.4) was 0.599 mg/mL (≈ 532 µM). The solubility (physchem [5]; [16]) was 0.022 mg/mL (≈ 19.5 µM), the Papp (in vitro) was 104 nm/s and the “Metabolic stability in human liver microsomes (% metabolized compound after 20 min)” value [6] was 40%. For the same compound, the “Metabolic stability in human liver microsomes (% metabolized compound after 20 min), (K)” value [6] was 0.5(K) %, the “Metabolic stability in human liver microsomes (% metabolized compound after 20 min), (Q)” value [6] was “/35(Q) %” and the IC50 (CYP3A4; midazolam, read-out: CYP3A4 inhibition, IC50 with midazolam as substrate) was 3 µM. The IC50 (CYP3A4; testosterone, read-out: CYP3A4 inhibition, IC50 with testosterone as substrate (T)) was 10 µM, the logD (physchem [10]) was 4.5 and the MIC (Mtb H37Rv [1]) was 0.15 µM (≈ 0.169 µg/mL). For the same compound, the MIC [7] was 0.63 µM (≈ 0.709 µg/mL) and the “Chemical stability: t/12@pH 2” value [11] was “∼6 h”.

`CCC[C@@H]1C[C@@H](C(=O)N[C@@H]([C@H]2O[C@H](SC)[C@H](O)[C@@H](O)[C@H]2O)[C@H](C)Cl)N(C)C1` [Clindamycin, reference compound] gave an IC50 (Mtb methylated ribosome; [12]) of 42.3 µM and an IC50 (Mtb ribosome; [13]) of 0.08 µM.

With `NNC(=O)c1ccncc1` [Isoniazid, reference compound] the “Growth inhibition (MIC80)” value (M. bovis BCG Pasteur) was 0.40 µM and the MIC80 (M. bovis BCG Pasteur; Mycobacterium tuberculosis variant bovis BCG, BCG, read-out: Growth inhibition (MIC80)) was 0.34 µM (≈ 0.0466 µg/mL).
